Experimental data published in patent US20090270371A1, “QUINOLINE DERIVATIVES USEFUL IN THE TREATMENT OF MGLUR5 RECEPTOR-MEDIATED DISORDERS” (priority 2005, published 2009).

The compounds below were run against T1, rat mGluR5 receptors (Rattus norvegicus, UniProt P31424) (assay: mGluR5 receptor binding test, rat cerebro-cortical membrane preparation, [3H]-M-MPEP). Conditions: affinity for rat mGluR5 receptors; [3H]-M-MPEP (2 nM) radioligand.
T1 construct: rat cerebro-cortical membrane preparation was used; from tissue; host or cells: rat cerebral cortex membranes
T1 sequence (P31424 21-1203): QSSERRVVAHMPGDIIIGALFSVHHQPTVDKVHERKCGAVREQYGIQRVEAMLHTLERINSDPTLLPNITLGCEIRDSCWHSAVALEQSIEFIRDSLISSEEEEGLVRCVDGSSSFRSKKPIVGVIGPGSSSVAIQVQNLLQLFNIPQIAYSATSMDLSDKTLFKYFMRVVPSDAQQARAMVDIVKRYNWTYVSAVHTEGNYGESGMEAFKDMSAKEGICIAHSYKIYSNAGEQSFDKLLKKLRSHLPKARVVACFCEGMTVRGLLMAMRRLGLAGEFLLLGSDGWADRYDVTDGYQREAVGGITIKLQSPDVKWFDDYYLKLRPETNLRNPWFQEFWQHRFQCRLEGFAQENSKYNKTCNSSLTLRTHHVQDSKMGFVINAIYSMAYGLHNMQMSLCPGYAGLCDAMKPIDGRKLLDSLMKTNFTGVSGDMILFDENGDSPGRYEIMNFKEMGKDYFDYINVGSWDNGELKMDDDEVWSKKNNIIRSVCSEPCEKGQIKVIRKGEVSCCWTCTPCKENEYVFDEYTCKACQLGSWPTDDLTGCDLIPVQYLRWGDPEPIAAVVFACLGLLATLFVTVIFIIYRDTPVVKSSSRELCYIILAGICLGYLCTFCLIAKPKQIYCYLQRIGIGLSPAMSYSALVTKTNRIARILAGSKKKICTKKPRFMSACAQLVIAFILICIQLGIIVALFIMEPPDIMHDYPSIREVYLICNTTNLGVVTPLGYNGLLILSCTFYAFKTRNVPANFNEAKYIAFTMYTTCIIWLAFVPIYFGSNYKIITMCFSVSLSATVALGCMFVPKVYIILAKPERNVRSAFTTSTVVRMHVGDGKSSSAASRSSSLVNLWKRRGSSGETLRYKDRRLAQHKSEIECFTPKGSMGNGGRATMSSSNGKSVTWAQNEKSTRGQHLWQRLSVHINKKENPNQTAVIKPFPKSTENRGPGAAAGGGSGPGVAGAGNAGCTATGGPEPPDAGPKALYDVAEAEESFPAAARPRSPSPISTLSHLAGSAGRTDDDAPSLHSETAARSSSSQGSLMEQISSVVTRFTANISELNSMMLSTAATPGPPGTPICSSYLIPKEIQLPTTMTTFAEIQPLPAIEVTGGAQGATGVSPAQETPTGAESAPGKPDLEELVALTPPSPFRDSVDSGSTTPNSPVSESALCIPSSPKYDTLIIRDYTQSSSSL
Summary of the method: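 Radioligand binding used rat cerebro-cortical membranes with 2 nM [3H]-M-MPEP. Nonspecific binding was defined with 10 μM M-MPEP. The method follows a modification of a published procedure.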

Compared with `Cc1ccc(S(=O)(=O)c2cnc3ccc(Cl)cc3c2N2CCC(C)CC2)cc1Cl` [Compound 219], `Cc1ccc(S(=O)(=O)c2cnc3ccc(Cl)cc3c2N2CCC(C)CC2)cc1C` [Compound 220] is lower in Ki: 200 to 500 nM for the first, less than 200 nM for the second.

Compared with `COc1ccc(S(=O)(=O)c2cnc3ccc(Cl)cc3c2N2CCC(C)CC2)cc1Cl` [Compound 221], `COc1ccc(S(=O)(=O)c2cnc3ccc(Cl)cc3c2N2CCC(C)CC2)cc1OC` [Compound 225] is lower in Ki: greater than 500 nM for the first, 200 to 500 nM for the second.

First: CC1CCN(c2c(S(=O)(=O)c3ccc(F)c(F)c3)cnc3ccc(Cl)cc23)CC1 [Compound 222]
Second: CC1CCN(c2c(S(=O)(=O)c3ccc(Cl)c(Cl)c3)cnc3ccc(Cl)cc23)CC1 [Compound 223]
The Ki of the first is higher: 200 to 500 nM for the first, less than 200 nM for the second.

First: Cc1cc(C)cc(S(=O)(=O)c2cnc3ccc(Cl)cc3c2N2CCC(C)CC2)c1 [Compound 224]
Second: COc1ccc2ncc(S(=O)(=O)c3cc(Cl)cc(Cl)c3)c(N3CCC(C)CC3)c2c1 [Compound 239]
The Ki of the first is higher: greater than 500 nM for the first, less than 200 nM for the second. The second binds more tightly here.

`CC1CCN(c2c(S(=O)(=O)c3cc(Cl)cc(Cl)c3)cnc3c(F)cccc23)CC1` [Compound 226] and `CC1CCN(c2c(S(=O)(=O)c3ccc(Cl)c(Cl)c3)cnc3c(F)cccc23)CC1` [Compound 236] cannot be ordered by Ki: less than 200 nM for the first, less than 200 nM for the second.

Going from `CC1CCN(c2c(S(=O)(=O)c3cc(F)cc(F)c3)cnc3c(F)cccc23)CC1` [Compound 227] to `CC1CCN(c2c(S(=O)(=O)c3ccc(F)c(F)c3)cnc3c(F)cccc23)CC1` [Compound 238], the Ki falls from greater than 500 nM to less than 200 nM.

Compared with `CC1CCN(c2c(S(=O)(=O)c3ccc(F)cc3)cnc3c(F)cccc23)CC1` [Compound 228], `CC1CCN(c2c(S(=O)(=O)c3ccc(Cl)cc3)cnc3c(F)cccc23)CC1` [Compound 231] is lower in Ki: greater than 500 nM for the first, less than 200 nM for the second.

First: COc1ccc(S(=O)(=O)c2cnc3c(F)cccc3c2N2CCC(C)CC2)cc1 [Compound 229]
Second: Cc1ccc(S(=O)(=O)c2cnc3c(F)cccc3c2N2CCC(C)CC2)cc1 [Compound 235]
The Ki of the first is higher: 200 to 500 nM for the first, less than 200 nM for the second.

First: CC1CCN(c2c(S(=O)(=O)c3ccccc3)cnc3c(F)cccc23)CC1 [Compound 230]
Second: CC1CCN(c2c(S(=O)(=O)c3cccc(F)c3)cnc3c(F)cccc23)CC1 [Compound 232]
The Ki of the first is higher: greater than 500 nM for the first, 200 to 500 nM for the second. The second binds more tightly here.

`Cc1ccc(S(=O)(=O)c2cnc3c(F)cccc3c2N2CCC(C)CC2)cc1F` [Compound 233] and `CC1CCN(c2c(S(=O)(=O)c3ccc(F)c(Cl)c3)cnc3c(F)cccc23)CC1` [Compound 237] cannot be ordered by Ki: less than 200 nM for the first, less than 200 nM for the second.

First: CC1CCN(c2c(S(=O)(=O)c3ccc(C#N)cc3)cnc3c(F)cccc23)CC1 [Compound 234]
Second: CC1CCN(c2c(S(=O)(=O)c3ccc(F)cc3)cnc3ccc(C#N)cc23)CC1 [Compound 252]
The Ki of the first is lower: less than 200 nM for the first, 200 to 500 nM for the second.

Compared with `COc1ccc2ncc(S(=O)(=O)c3cc(F)cc(F)c3)c(N3CCC(C)CC3)c2c1` [Compound 240], `COc1ccc2ncc(S(=O)(=O)c3cccc(F)c3)c(N3CCC(C)CC3)c2c1` [Compound 243] is lower in Ki: greater than 500 nM for the first, 200 to 500 nM for the second.

Compared with `COc1ccc2ncc(S(=O)(=O)c3ccc(F)cc3)c(N3CCC(C)CC3)c2c1` [Compound 241], `COc1ccc2ncc(S(=O)(=O)c3ccc(C)c(F)c3)c(N3CCC(C)CC3)c2c1` [Compound 247] is lower in Ki: greater than 500 nM for the first, 200 to 500 nM for the second.

`COc1ccc2ncc(S(=O)(=O)c3ccc(OC)c(OC)c3)c(N3CCC(C)CC3)c2c1` [Compound 242] and `COc1ccc2ncc(S(=O)(=O)c3ccc(OC)c(Cl)c3)c(N3CCC(C)CC3)c2c1` [Compound 245] cannot be ordered by Ki: greater than 500 nM for the first, greater than 500 nM for the second.

`COc1cccc(S(=O)(=O)c2cnc3ccc(OC)cc3c2N2CCC(C)CC2)c1` [Compound 244] and `COc1ccc2ncc(S(=O)(=O)c3cccc(Cl)c3)c(N3CCC(C)CC3)c2c1` [Compound 246] cannot be ordered by Ki: greater than 500 nM for the first, greater than 500 nM for the second.

`COc1ccc2ncc(S(=O)(=O)c3ccc(C)c(Cl)c3)c(N3CCC(C)CC3)c2c1` [Compound 248] and `COc1ccc2ncc(S(=O)(=O)c3ccc(Cl)c(Cl)c3)c(N3CCC(C)CC3)c2c1` [Compound 249] cannot be ordered by Ki: less than 200 nM for the first, less than 200 nM for the second.

Compared with `COc1ccc2ncc(S(=O)(=O)c3ccc(C)c(C)c3)c(N3CCC(C)CC3)c2c1` [Compound 250], `COc1ccc2ncc(S(=O)(=O)c3ccc(C)c(Cl)c3)c(N3CCOCC3)c2c1` [Compound 276] is higher in Ki: 200 to 500 nM for the first, greater than 500 nM for the second. The first binds more tightly here.

Compared with `CC1CCN(c2c(S(=O)(=O)c3ccc(Cl)cc3)cnc3c(Cl)ccc(Cl)c23)CC1` [Compound 253], `COc1ccc2ncc(S(=O)(=O)c3ccc(Cl)cc3)c(N3CCOCC3)c2c1` [Compound 270] is lower in Ki: 200 to 500 nM for the first, less than 200 nM for the second.

`Cc1ccc2ncc(S(=O)(=O)c3ccccc3)c(N3CCOCC3)c2c1` [Compound 254] and `O=S(=O)(c1ccccc1)c1cnc2ccc(F)cc2c1N1CCOCC1` [Compound 279] cannot be ordered by Ki: less than 200 nM for the first, less than 200 nM for the second.

`Cc1ccc2ncc(S(=O)(=O)c3cc(F)cc(F)c3)c(N3CCOCC3)c2c1` [Compound 255] and `COc1ccc2ncc(S(=O)(=O)c3cc(F)cc(F)c3)c(N3CCOCC3)c2c1` [Compound 272] cannot be ordered by Ki: greater than 500 nM for the first, greater than 500 nM for the second.

Compared with `Cc1ccc2ncc(S(=O)(=O)c3cccc(C#N)c3)c(N3CCOCC3)c2c1` [Compound 256], `COc1ccc2ncc(S(=O)(=O)c3cccc(C#N)c3)c(N3CCOCC3)c2c1` [Compound 273] is higher in Ki: 200 to 500 nM for the first, greater than 500 nM for the second. The first binds more tightly here.

`Cc1ccc2ncc(S(=O)(=O)c3ccc(F)cc3)c(N3CCOCC3)c2c1` [Compound 257] and `COc1ccc2ncc(S(=O)(=O)c3ccc(F)cc3)c(N3CCOCC3)c2c1` [Compound 275] cannot be ordered by Ki: greater than 500 nM for the first, greater than 500 nM for the second.

Compared with `COc1ccc(S(=O)(=O)c2cnc3ccc(C)cc3c2N2CCOCC2)cc1` [Compound 258], `COc1cccc(S(=O)(=O)c2cnc3ccc(C)cc3c2N2CCOCC2)c1` [Compound 260] is lower in Ki: greater than 500 nM for the first, 200 to 500 nM for the second. The second binds more tightly here.

`Cc1ccc2ncc(S(=O)(=O)c3cccc(F)c3)c(N3CCOCC3)c2c1` [Compound 259] and `Cc1ccc2ncc(S(=O)(=O)c3cccc(Cl)c3)c(N3CCOCC3)c2c1` [Compound 263] cannot be ordered by Ki: greater than 500 nM for the first, greater than 500 nM for the second.

First: COc1ccc(S(=O)(=O)c2cnc3ccc(C)cc3c2N2CCOCC2)cc1Cl [Compound 261]
Second: COc1ccc2ncc(S(=O)(=O)c3ccc(OC)c(Cl)c3)c(N3CCOCC3)c2c1 [Compound 277]
The Ki of the first is lower: 200 to 500 nM for the first, greater than 500 nM for the second. The first binds more tightly here.

`Cc1ccc2ncc(S(=O)(=O)c3ccc(Cl)c(Cl)c3)c(N3CCOCC3)c2c1` [Compound 262] and `Cc1ccc2ncc(S(=O)(=O)c3ccc(C)c(Cl)c3)c(N3CCOCC3)c2c1` [Compound 266] fall in the same range of Ki: 200 to 500 nM for the first, 200 to 500 nM for the second.

First: Cc1ccc2ncc(S(=O)(=O)c3cc(Cl)cc(Cl)c3)c(N3CCOCC3)c2c1 [Compound 264]
Second: COc1ccc2ncc(S(=O)(=O)c3cc(Cl)cc(Cl)c3)c(N3CCOCC3)c2c1 [Compound 271]
The Ki of the first is lower: 200 to 500 nM for the first, greater than 500 nM for the second.

`Cc1ccc2ncc(S(=O)(=O)c3ccc(C#N)cc3)c(N3CCOCC3)c2c1` [Compound 265] and `Cc1ccc2ncc(S(=O)(=O)c3ccc(C)c(F)c3)c(N3CCOCC3)c2c1` [Compound 267] cannot be ordered by Ki: greater than 500 nM for the first, greater than 500 nM for the second.

`Cc1ccc2ncc(S(=O)(=O)c3ccc(F)c(F)c3)c(N3CCOCC3)c2c1` [Compound 268] and `COc1ccc2ncc(S(=O)(=O)c3ccc(Cl)c(Cl)c3)c(N3CCOCC3)c2c1` [Compound 278] cannot be ordered by Ki: greater than 500 nM for the first, greater than 500 nM for the second.

First: COc1ccc2ncc(S(=O)(=O)c3ccccc3)c(N3CCOCC3)c2c1 [Compound 269]
Second: COc1ccc2ncc(S(=O)(=O)c3cccc(Cl)c3)c(N3CCOCC3)c2c1 [Compound 274]
The Ki of the first is lower: 200 to 500 nM for the first, greater than 500 nM for the second.
